Measured values published in the NIST ThermoML archive (doi:10.1016/j.jct.2018.11.004).

Legend:
[1] = Molar enthalpy of transition or fusion
[2] = molar heat capacity at constant pressure

CC(C)[C@@H]1CC[C@@H](C)C[C@H]1O [L-menthol]
[1]
Conditions | Molar enthalpy of transition or fusion [kcal/mol]
Crystal 1, Adiabatic calorimetry | 3.22
Crystal 1, DSC | 3.18

Conditions | Molar enthalpy of transition or fusion [kcal/mol]
[1], Metastable crystal, DSC | 2.72

[2]
Conditions | molar heat capacity at constant pressure [J/K/mol]
5 K, 101.33 kPa, Crystal 1, Small (less than 1 g) adiabatic calorimetry | 0.858
10 K, 101.33 kPa, Crystal 1, Small (less than 1 g) adiabatic calorimetry | 5.528
15 K, 101.33 kPa, Crystal 1, Small (less than 1 g) adiabatic calorimetry | 12.7
20 K, 101.33 kPa, Crystal 1, Small (less than 1 g) adiabatic calorimetry | 20.26
25 K, 101.33 kPa, Crystal 1, Small (less than 1 g) adiabatic calorimetry | 27.36
30 K, 101.33 kPa, Crystal 1, Small (less than 1 g) adiabatic calorimetry | 33.65
35 K, 101.33 kPa, Crystal 1, Small (less than 1 g) adiabatic calorimetry | 39.12
40 K, 101.33 kPa, Crystal 1, Small (less than 1 g) adiabatic calorimetry | 44.06
45 K, 101.33 kPa, Crystal 1, Small (less than 1 g) adiabatic calorimetry | 48.69
50 K, 101.33 kPa, Crystal 1, Small (less than 1 g) adiabatic calorimetry | 53.14
55 K, 101.33 kPa, Crystal 1, Small (less than 1 g) adiabatic calorimetry | 57.47
60 K, 101.33 kPa, Crystal 1, Small (less than 1 g) adiabatic calorimetry | 61.81
65 K, 101.33 kPa, Crystal 1, Small (less than 1 g) adiabatic calorimetry | 66.15
70 K, 101.33 kPa, Crystal 1, Small (less than 1 g) adiabatic calorimetry | 70.48
75 K, 101.33 kPa, Crystal 1, Small (less than 1 g) adiabatic calorimetry | 74.81
80 K, 101.33 kPa, Crystal 1, Small (less than 1 g) adiabatic calorimetry | 79.11
85 K, 101.33 kPa, Crystal 1, Small (less than 1 g) adiabatic calorimetry | 83.38
90 K, 101.33 kPa, Crystal 1, Small (less than 1 g) adiabatic calorimetry | 87.62
95 K, 101.33 kPa, Crystal 1, Small (less than 1 g) adiabatic calorimetry | 91.81
100 K, 101.33 kPa, Crystal 1, Small (less than 1 g) adiabatic calorimetry | 95.95
105 K, 101.33 kPa, Crystal 1, Small (less than 1 g) adiabatic calorimetry | 100
110 K, 101.33 kPa, Crystal 1, Small (less than 1 g) adiabatic calorimetry | 104
115 K, 101.33 kPa, Crystal 1, Small (less than 1 g) adiabatic calorimetry | 108
120 K, 101.33 kPa, Crystal 1, Small (less than 1 g) adiabatic calorimetry | 111.8
125 K, 101.33 kPa, Crystal 1, Small (less than 1 g) adiabatic calorimetry | 115.7
130 K, 101.33 kPa, Crystal 1, Small (less than 1 g) adiabatic calorimetry | 119.4
135 K, 101.33 kPa, Crystal 1, Small (less than 1 g) adiabatic calorimetry | 123.1
140 K, 101.33 kPa, Crystal 1, Small (less than 1 g) adiabatic calorimetry | 126.8
145 K, 101.33 kPa, Crystal 1, Small (less than 1 g) adiabatic calorimetry | 130.4
150 K, 101.33 kPa, Crystal 1, Small (less than 1 g) adiabatic calorimetry | 134
155 K, 101.33 kPa, Crystal 1, Small (less than 1 g) adiabatic calorimetry | 137.5
160 K, 101.33 kPa, Crystal 1, Small (less than 1 g) adiabatic calorimetry | 141.1
165 K, 101.33 kPa, Crystal 1, Small (less than 1 g) adiabatic calorimetry | 144.6
170 K, 101.33 kPa, Crystal 1, Small (less than 1 g) adiabatic calorimetry | 148.1
175 K, 101.33 kPa, Crystal 1, Small (less than 1 g) adiabatic calorimetry | 151.6
180 K, 101.33 kPa, Crystal 1, Small (less than 1 g) adiabatic calorimetry | 155.1
185 K, 101.33 kPa, Crystal 1, Small (less than 1 g) adiabatic calorimetry | 158.6
190 K, 101.33 kPa, Crystal 1, Small (less than 1 g) adiabatic calorimetry | 162.2
195 K, 101.33 kPa, Crystal 1, Small (less than 1 g) adiabatic calorimetry | 165.7
200 K, 101.33 kPa, Crystal 1, Small (less than 1 g) adiabatic calorimetry | 169.3
205 K, 101.33 kPa, Crystal 1, Small (less than 1 g) adiabatic calorimetry | 172.8
210 K, 101.33 kPa, Crystal 1, Small (less than 1 g) adiabatic calorimetry | 176.4
215 K, 101.33 kPa, Crystal 1, Small (less than 1 g) adiabatic calorimetry | 180
220 K, 101.33 kPa, Crystal 1, Small (less than 1 g) adiabatic calorimetry | 183.7
225 K, 101.33 kPa, Crystal 1, Small (less than 1 g) adiabatic calorimetry | 187.4
230 K, 101.33 kPa, Crystal 1, Small (less than 1 g) adiabatic calorimetry | 191.1
235 K, 101.33 kPa, Crystal 1, Small (less than 1 g) adiabatic calorimetry | 194.9
240 K, 101.33 kPa, Crystal 1, Small (less than 1 g) adiabatic calorimetry | 198.7
245 K, 101.33 kPa, Crystal 1, Small (less than 1 g) adiabatic calorimetry | 202.5
250 K, 101.33 kPa, Crystal 1, Small (less than 1 g) adiabatic calorimetry | 206.5
255 K, 101.33 kPa, Crystal 1, Small (less than 1 g) adiabatic calorimetry | 210.7
260 K, 101.33 kPa, Crystal 1, Small (less than 1 g) adiabatic calorimetry | 215.1
265 K, 101.33 kPa, Crystal 1, Small (less than 1 g) adiabatic calorimetry | 219.5
265.2 K, 100 kPa, Crystal 1, Extra sensitive DSC | 221.5
270 K, 100 kPa, Crystal 1, Extra sensitive DSC | 225.6
270 K, 101.33 kPa, Crystal 1, Small (less than 1 g) adiabatic calorimetry | 223.9
275 K, 100 kPa, Crystal 1, Extra sensitive DSC | 230
275 K, 101.33 kPa, Crystal 1, Small (less than 1 g) adiabatic calorimetry | 228.2
280 K, 100 kPa, Crystal 1, Extra sensitive DSC | 235.1
280 K, 101.33 kPa, Crystal 1, Small (less than 1 g) adiabatic calorimetry | 232.4
285 K, 100 kPa, Crystal 1, Extra sensitive DSC | 240.5
285 K, 101.33 kPa, Crystal 1, Small (less than 1 g) adiabatic calorimetry | 236.7
290 K, 100 kPa, Crystal 1, Extra sensitive DSC | 246.3
290 K, 101.33 kPa, Crystal 1, Small (less than 1 g) adiabatic calorimetry | 241.5
295 K, 100 kPa, Crystal 1, Extra sensitive DSC | 253.1
295 K, 101.33 kPa, Crystal 1, Small (less than 1 g) adiabatic calorimetry | 246.7
298.15 K, 101.33 kPa, Crystal 1, Small (less than 1 g) adiabatic calorimetry | 250.1
300 K, 101.33 kPa, Crystal 1, Small (less than 1 g) adiabatic calorimetry | 252.3
305 K, 101.33 kPa, Crystal 1, Small (less than 1 g) adiabatic calorimetry | 258.3
310 K, 101.33 kPa, Crystal 1, Small (less than 1 g) adiabatic calorimetry | 264.6
315 K, 101.33 kPa, Crystal 1, Small (less than 1 g) adiabatic calorimetry | 271.4
315.6 K, 101.33 kPa, Crystal 1, Small (less than 1 g) adiabatic calorimetry | 272.3

[2], Liquid
Conditions | molar heat capacity at constant pressure [J/K/mol]
315.6 K, 101.33 kPa, Small (less than 1 g) adiabatic calorimetry | 376.1
320 K, 101.33 kPa, Small (less than 1 g) adiabatic calorimetry | 383.1
325 K, 101.33 kPa, Small (less than 1 g) adiabatic calorimetry | 390.8
325.9 K, 100 kPa, Extra sensitive DSC | 395.1
330 K, 100 kPa, Extra sensitive DSC | 401.1
330 K, 101.33 kPa, Small (less than 1 g) adiabatic calorimetry | 398.1
335 K, 100 kPa, Extra sensitive DSC | 408
335 K, 101.33 kPa, Small (less than 1 g) adiabatic calorimetry | 404.9
340 K, 100 kPa, Extra sensitive DSC | 414.3
340 K, 101.33 kPa, Small (less than 1 g) adiabatic calorimetry | 411.3
345 K, 100 kPa, Extra sensitive DSC | 420.5
345 K, 101.33 kPa, Small (less than 1 g) adiabatic calorimetry | 417.1
350 K, 100 kPa, Extra sensitive DSC | 426.2
350 K, 101.33 kPa, Small (less than 1 g) adiabatic calorimetry | 422.3
355 K, 100 kPa, Extra sensitive DSC | 430.8
355 K, 101.33 kPa, Small (less than 1 g) adiabatic calorimetry | 427
360 K, 101.33 kPa, Small (less than 1 g) adiabatic calorimetry | 431
365 K, 101.33 kPa, Small (less than 1 g) adiabatic calorimetry | 434.3
370 K, 101.33 kPa, Small (less than 1 g) adiabatic calorimetry | 437
